≈ marks a conversion by molar mass, not a printed value.
What was measured:
[1] = test system: Pseudomonas aeruginosa ATTC 27853; assay: MIC against P. aeruginosa ATTC 27853 in LB broth; type: cell-based; conditions: ATTC27853, 16 h
Protocol: (§1) Overnight cultures were diluted 1:150 in LB broth and added to a 96-well plate. Antibiotics were serially diluted 1:2 and added to columns of the 96-well plate and grown at 37 °C with continuous shaking. Cell growth was measured using optical density at 600 nm (OD600). MIC assays were performed in either BioTek Synergy HT or Tecan InfiniteM200 Pro microplate readers.

[2] = test system: Klebsiella pneumoniae ATCC 438165; assay: MIC against K. pneumoniae in LB broth; type: cell-based; conditions: ATCC438165, 16 h, 37 °C, OD600
Protocol: as §1

[3] = test system: P. aeruginosa PA14 nfxB mutants; assay: MIC against fluorofolin-resistant PA14 nfxB mutants in liquid culture; type: cell-based; conditions: Pseudomonas aeruginosa
Protocol: as §1
Resistant mutants were maintained as a frozen stock.

E. coli DHFR (FolA) = biological target: T1, E. coli DHFR (FolA) (Escherichia coli, UniProt P0ABQ4); assay: In vitro DHFR activity, purified E. coli FolA; type: biochemical; conditions: for fractional initial velocity: E. coli FolA
T1 construct: purchased Genscript
T1 sequence (P0ABQ4 whole entry): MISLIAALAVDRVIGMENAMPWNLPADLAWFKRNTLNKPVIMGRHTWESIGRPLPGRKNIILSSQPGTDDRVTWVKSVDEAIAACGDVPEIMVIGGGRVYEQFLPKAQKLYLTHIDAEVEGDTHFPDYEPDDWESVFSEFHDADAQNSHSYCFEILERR
Protocol: As described previously, purified E. coli dihydrofolate reductase (FolA) was purified by Genscript. Enzyme activity was measured on a QuantaMaster 40 spectrophotometer (Photon Technology) using the DHFR reductase assay kit with slight modifications. E. coli FolA was diluted 1:1,000 into 1× assay buffer. Of this mixture, 100 μl with or without compound was added to a BRAND UV cuvette (Sigma-Aldrich BR759200) and sample transmitted light intensity at 340 nm was measured for 100 s at 1 kHz sampling. Readings were averaged for every 1 Hz and the activity of each sample was calculated from the slope (β) of a linear regression of the log-transformed intensity measurements on MATLAB R2022B. To account for enzyme stability, measurements were normalized to a standard condition (60 μM NADPH and 100 μM DHF) measured immediately before the sample of interest. The relative activity was calculated as (βsample − βnoEnzyme)/(βstandard − βnoEnzyme).

[4] = test system: HLF (human lung fibroblast); assay: Mammalian cell cytotoxicity, HLF; type: cell-based; conditions: 72 h, CyQUANT, read-out: IC50 Fluorofolin
Protocol: HK-2 (500 cells per well) (ATCC CRL-2190), HLF (500 cells per well) (Cell Applications 506K-05a), WI-38 (500 cells per well) (ATCC CCL-75) or PBMC (5,000 cells per well) (TPCS PB010C) cells were seeded in white opaque 384-well plates. After 24 h, DMSO or compounds were added in 3-fold dilutions and cells incubated for 72 h. For PBMC, CellTiter-Glo reagent was added in equal volume and incubated for 30 min, after which luminescence was read. For other cell types, CyQUANT detection reagent was added in equal volume and cells incubated for 1 h, after which fluorescence was read with standard green filter set […]. Cell toxicity was evaluated by Pharmaron.

[5] = test system: WI-38 (embryonic lung tissue); assay: Mammalian cell cytotoxicity, WI-38; type: cell-based, human
[6] = Serum (plasma protein) binding; type: in vitro ADME
Protocol: An initial t = 0 sample was collected. […] Serum binding parameters were determined as follows: • % Bound = 100% − % Unbound • logK = log(% Bound/100 − % Bound) • % Remaining = Area-ratio6h/Area-ratio0h × 100% • % Recovery was determined as (Area-ratiobuffer-chamber + Area-ratioplasma-chamber)/(Area-ratiototal sample) × 100

E. cloacae = assay: Growth with or without TMI supplementation and fluorofolin, E. cloacae; type: cell-based, Enterobacter cloacae; conditions: fluorofolin 2X MIC
Protocol: (§2) Where listed, growth media were prepared according manufacturer recommendations: LB broth and LB broth supplemented with 0.3 mM thymine (BD Biosciences 244610, Alfa Aesar A15879), 0.3 mM methionine (Sigma-Aldrich M9625), 0.3 mM inosine (EMD Millipore 4060), cation-adjusted Mueller–Hinton II broth (CAMHB) (BD 212322) or 0.3 mM thymidine (Sigma-Aldrich T1895), Gutnick minimal media (1.0 g l^−1 K2SO4, 13.5 g l^−1 K2HPO4, 4.7 g l^−1 KH2PO4, 0.1 g l^−1 MgSO4·7H2O, 10 mM NH4Cl as a nitrogen source and 0.4% w/v glucose as a carbon source)[65].
(§3) Extended Data Fig. 3 TMI supplementation can also rescue other species from fluorofolin DHFR inhibition. […] (f) P. aeruginosa PA14 or E. coli lptd4213 treated with fluorofolin 50 μg/mL in the presence or absence of 0.3 mM thymidine. (g) E. coli lptd4213 treated with fluorofolin 50 μg/mL and SMX (78.1 μg/mL) in the presence or absence of 0.3 mM thymidine or 0.3 mM TMI supplementation, Curves represent average optical at 600 nm (OD600) of 2 biological replicates. Means are shown. Source data

E. coli lptD4213 = assay: Growth of E. coli lptd4213 with fluorofolin (with or without SMX) and thymidine or TMI; type: cell-based, Escherichia coli; conditions: fluorofolin 50 μg/mL, 0.3 mM thymidine
Protocol: as §2, §3

[7] = mouse plasma, 1 μM, 6 h, dialysis

Structure (SMILES): Nc1nc(N)c2c(ccc3c2ccn3Cc2ccnc(F)c2)n1 [fluorofolin]
- MIC [1]: 25 µg/mL
- MIC [2]: 6.25 µg/mL
- MIC [3]: > 100 µg/mL
- IC50 (E. coli DHFR (FolA)): 2.5 ± 1.1 nM
- fractional initial velocity (E. coli DHFR (FolA); Fluorofolin 9.91e-5 uM): 1.007
- fractional initial velocity (E. coli DHFR (FolA); Fluorofolin 0.000507393 uM): 1.009
- fractional initial velocity (E. coli DHFR (FolA); Fluorofolin 0.000792664 uM): 0.7937
- fractional initial velocity (E. coli DHFR (FolA); Fluorofolin 0.00101479 uM): 0.7819
- fractional initial velocity (E. coli DHFR (FolA); Fluorofolin 0.00152192 uM): 0.9341
- fractional initial velocity (E. coli DHFR (FolA); Fluorofolin 0.00158533 uM): 0.5604
- fractional initial velocity (E. coli DHFR (FolA); Fluorofolin 0.00202957 uM): 0.702
- fractional initial velocity (E. coli DHFR (FolA); Fluorofolin 0.00405914 uM): 0.5491
- fractional initial velocity (E. coli DHFR (FolA); Fluorofolin 0.00608766 uM): 0.1317
- fractional initial velocity (E. coli DHFR (FolA); Fluorofolin 0.00634131 uM): 0.5169
- fractional initial velocity (E. coli DHFR (FolA); Fluorofolin 0.00811828 uM): 0.197
- fractional initial velocity (E. coli DHFR (FolA); Fluorofolin 0.0121753 uM): 0.07555
- fractional initial velocity (E. coli DHFR (FolA); Fluorofolin 0.0126826 uM): 0.0002002
- fractional initial velocity (E. coli DHFR (FolA); Fluorofolin 0.0162366 uM): 0.3634
- fractional initial velocity (E. coli DHFR (FolA); Fluorofolin 0.0253653 uM): 0.0004461
- fractional initial velocity (E. coli DHFR (FolA); Fluorofolin 0.0324731 uM): -0.0327
- IC50 [4]: 17.2 µg/mL (≈ 55.9 µM)
- IC50 ([5]; Homo sapiens, WI-38, 72 h, CyQUANT, read-out: IC50 Fluorofolin): 14.4 µg/mL (≈ 46.8 µM)
- increase in IC50 compared with IRS-16 ([5]; WI-38 cells): 58.5 fold
- % Bound [6, 7]: 71.7000%
- % Recovery [6, 7]: 91.8800%
- % Unbound [6, 7]: 28.3000%
- fraction unbound at 6 h, 1 μM ([6]; mouse plasma, 1 μM, 6 h, dialysis, read-out: % Bound (converted)): 0.283
- LogK ([6]; mouse plasma, log(% Bound/(100 − % Bound))): 0.4000
- recovery at 6 h, 1 μM ([6]; mouse, 1 μM, 6 h, dialysis): 91.9%
- remaining at 6 h, 1 μM ([6]; mouse, read-out: % Remaining after 6 hours): 89.7%
- rescue of growth inhibition by TMI supplementation (E. cloacae): could also be rescued from fluorofolin growth inhibition by TMI supplementation
- rescue of growth inhibition by thymidine supplementation alone (E. coli lptD4213): Rescue from fluorofolin inhibition was also shown
